Laboratory results taken from the supplement of paper PMC10733146.

Columns and labels:
Test in all cases: viability relative to DMSO control (fraction); higher = less drug effect (more viable cells)
Conditions in all cases: 48 h
[1] = test system: primary ALL patient cells (S048)
Summary of the method: (§1)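 In 384-well plates with compounds pre-plated at five concentrations (one well per concentration), primary mononuclear tumour cells were plated at 4 × 10^4 cells per well. The cells came from blood or bone marrow by Ficoll isolation or from processed lymph node, and were used fresh or cryopreserved. Culture ran for 48 h at 37 °C and 5% CO2 in RPMI-1640 containing penicillin/streptomycin, L-glutamine and human serum. Viability was read as CellTiter-Glo luminescence, normalised to the median of 16 inner DMSO wells.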

[2] = test system: primary ALL patient cells (S088)
Summary of the method: as §1

[3] = test system: primary AML patient cells (S002)
Summary of the method: as §1

[4] = test system: primary AML patient cells (S009)
Summary of the method: as §1

[5] = test system: primary AML patient cells (S017)
Summary of the method: as §1

[6] = test system: primary AML patient cells (S019)
Summary of the method: as §1

[7] = test system: primary AML patient cells (S021)
Summary of the method: as §1

[8] = test system: primary AML patient cells (S025)
Summary of the method: as §1

[9] = test system: primary AML patient cells (S060)
Summary of the method: as §1

[10] = test system: primary AML patient cells (S071)
Summary of the method: as §1

[11] = test system: primary AML patient cells (S072)
Summary of the method: as §1

[12] = test system: primary AML patient cells (S079)
Summary of the method: as §1

[13] = test system: primary AML patient cells (S089)
Summary of the method: as §1

[14] = test system: primary AML patient cells (S091)
Summary of the method: as §1

[15] = test system: primary B-PLL patient cells (S016)
Summary of the method: as §1

[16] = test system: primary DLBCL patient cells (S082)
Summary of the method: as §1

[17] = test system: primary FL patient cells (S022)
Summary of the method: as §1

[18] = test system: primary FL patient cells (S087)
Summary of the method: as §1

[19] = test system: primary MCL patient cells (S053)
Summary of the method: as §1

`Cc1cc(Nc2ncc(Cl)c(Nc3ccccc3S(=O)(=O)C(C)C)n2)c(OC(C)C)cc1C1CCNCC1` [Ceritinib] was tested, and the viability ([1]; 0.024 µM) was 0.855, the viability ([1]; 0.12 µM) was 0.83 and the viability ([1]; 0.6 µM) was 0.634. The viability ([1]; 3 µM) was 0.505, the viability ([1]; 15 µM) was 0.0153 and the viability ([2]; 0.024 µM) was 0.923. It also gave a viability ([2]; 0.12 µM) of 0.788, a viability ([2]; 0.6 µM) of 0.558 and a viability ([2]; 3 µM) of 0.35. For the same compound, the viability ([2]; 15 µM) was 0.0155, the viability ([3]; 0.024 µM) was 1.12 and the viability ([3]; 0.12 µM) was 0.926. It also gave a viability ([3]; 0.6 µM) of 0.861, a viability ([3]; 3 µM) of 0.616 and a viability ([3]; 15 µM) of 0.0299. For the same compound, the viability ([4]; 0.024 µM) was 0.937, the viability ([4]; 0.12 µM) was 0.903 and the viability ([4]; 0.6 µM) was 0.823. For the same compound, the viability ([4]; 3 µM) was 0.754, the viability ([4]; 15 µM) was 0.0293 and the viability ([5]; 0.024 µM) was 0.958. For the same compound, the viability ([5]; 0.12 µM) was 0.963, the viability ([5]; 0.6 µM) was 0.995 and the viability ([5]; 3 µM) was 0.773. It also gave a viability ([5]; 15 µM) of 0.0225, a viability ([6]; 0.024 µM) of 1.08 and a viability ([6]; 0.12 µM) of 1. It also gave a viability ([6]; 0.6 µM) of 1.03, a viability ([6]; 3 µM) of 0.773 and a viability ([6]; 15 µM) of 0.0262. For the same compound, the viability ([7]; 0.024 µM) was 1, the viability ([7]; 0.12 µM) was 0.934 and the viability ([7]; 0.6 µM) was 0.833. It also gave a viability ([7]; 3 µM) of 0.572, a viability ([7]; 15 µM) of 0.03 and a viability ([8]; 0.024 µM) of 0.985. It also gave a viability ([8]; 0.12 µM) of 0.874, a viability ([8]; 0.6 µM) of 0.838 and a viability ([8]; 3 µM) of 0.508. It also gave a viability ([8]; 15 µM) of 0.0191, a viability ([9]; 0.024 µM) of 1 and a viability ([9]; 0.12 µM) of 0.981. It also gave a viability ([9]; 0.6 µM) of 1.03, a viability ([9]; 3 µM) of 0.947 and a viability ([9]; 15 µM) of 0.0203. The viability ([10]; 0.024 µM) was 0.865, the viability ([10]; 0.12 µM) was 0.781 and the viability ([10]; 0.6 µM) was 0.476. For the same compound, the viability ([10]; 3 µM) was 0.174, the viability ([10]; 15 µM) was 0.0165 and the viability ([11]; 0.024 µM) was 0.954. For the same compound, the viability ([11]; 0.12 µM) was 0.939, the viability ([11]; 0.6 µM) was 0.79 and the viability ([11]; 3 µM) was 0.582. It also gave a viability ([11]; 15 µM) of 0.0168, a viability ([12]; 0.024 µM) of 0.964 and a viability ([12]; 0.12 µM) of 0.933. For the same compound, the viability ([12]; 0.6 µM) was 0.844, the viability ([12]; 3 µM) was 0.738 and the viability ([12]; 15 µM) was 0.0169. For the same compound, the viability ([13]; 0.024 µM) was 0.974, the viability ([13]; 0.12 µM) was 0.866 and the viability ([13]; 0.6 µM) was 0.562. The viability ([13]; 3 µM) was 0.393, the viability ([13]; 15 µM) was 0.0151 and the viability ([14]; 0.024 µM) was 0.947. For the same compound, the viability ([14]; 0.12 µM) was 0.77, the viability ([14]; 0.6 µM) was 0.436 and the viability ([14]; 3 µM) was 0.176. It also gave a viability ([14]; 15 µM) of 0.0224, a viability ([15]; 0.024 µM) of 0.945 and a viability ([15]; 0.12 µM) of 0.832. The viability ([15]; 0.6 µM) was 0.743, the viability ([15]; 3 µM) was 0.555 and the viability ([15]; 15 µM) was 0.0198. For the same compound, the viability ([16]; 0.024 µM) was 1.05, the viability ([16]; 0.12 µM) was 1.04 and the viability ([16]; 0.6 µM) was 0.617. It also gave a viability ([16]; 3 µM) of 0.321, a viability ([16]; 15 µM) of 0.0186 and a viability ([17]; 0.024 µM) of 1.01. The viability ([17]; 0.12 µM) was 0.948, the viability ([17]; 0.6 µM) was 0.846 and the viability ([17]; 3 µM) was 0.555. It also gave a viability ([17]; 15 µM) of 0.0165, a viability ([18]; 0.024 µM) of 0.968 and a viability ([18]; 0.12 µM) of 0.981. It also gave a viability ([18]; 0.6 µM) of 0.883, a viability ([18]; 3 µM) of 0.734 and a viability ([18]; 15 µM) of 0.0188. For the same compound, the viability ([19]; 0.024 µM) was 0.986, the viability ([19]; 0.12 µM) was 1.01 and the viability ([19]; 0.6 µM) was 1. For the same compound, the viability ([19]; 3 µM) was 0.832 and the viability ([19]; 15 µM) was 0.0213.
Compound `CCc1cnn2c(NCc3ccc[n+]([O-])c3)cc(N3CCCC[C@H]3CCO)nc12` [Dinaciclib] has a viability ([1]; 0.0016 µM) of 0.839, a viability ([1]; 0.008 µM) of 0.127 and a viability ([1]; 0.04 µM) of 0.0333. The viability ([1]; 0.2 µM) was 0.0246, the viability ([1]; 1 µM) was 0.0268 and the viability ([2]; 0.0016 µM) was 0.644. For the same compound, the viability ([2]; 0.008 µM) was 0.0942, the viability ([2]; 0.04 µM) was 0.0343 and the viability ([2]; 0.2 µM) was 0.0308. The viability ([2]; 1 µM) was 0.0318, the viability ([3]; 0.0016 µM) was 1.17 and the viability ([3]; 0.008 µM) was 0.272. For the same compound, the viability ([3]; 0.04 µM) was 0.277, the viability ([3]; 0.2 µM) was 0.265 and the viability ([3]; 1 µM) was 0.274. For the same compound, the viability ([4]; 0.0016 µM) was 1.06, the viability ([4]; 0.008 µM) was 0.189 and the viability ([4]; 0.04 µM) was 0.0815. The viability ([4]; 0.2 µM) was 0.0774, the viability ([4]; 1 µM) was 0.0863 and the viability ([5]; 0.0016 µM) was 0.994. For the same compound, the viability ([5]; 0.008 µM) was 0.401, the viability ([5]; 0.04 µM) was 0.0509 and the viability ([5]; 0.2 µM) was 0.0474. It also gave a viability ([5]; 1 µM) of 0.0503, a viability ([6]; 0.0016 µM) of 1.31 and a viability ([6]; 0.008 µM) of 0.54. The viability ([6]; 0.04 µM) was 0.114, the viability ([6]; 0.2 µM) was 0.116 and the viability ([6]; 1 µM) was 0.126. It also gave a viability ([7]; 0.0016 µM) of 1.38, a viability ([7]; 0.008 µM) of 0.424 and a viability ([7]; 0.04 µM) of 0.161. For the same compound, the viability ([7]; 0.2 µM) was 0.151, the viability ([7]; 1 µM) was 0.139 and the viability ([8]; 0.0016 µM) was 0.976. It also gave a viability ([8]; 0.008 µM) of 0.286, a viability ([8]; 0.04 µM) of 0.063 and a viability ([8]; 0.2 µM) of 0.0602. For the same compound, the viability ([8]; 1 µM) was 0.0589, the viability ([9]; 0.0016 µM) was 1.12 and the viability ([9]; 0.008 µM) was 0.0838. The viability ([9]; 0.04 µM) was 0.0221, the viability ([9]; 0.2 µM) was 0.0219 and the viability ([9]; 1 µM) was 0.0206. For the same compound, the viability ([10]; 0.0016 µM) was 0.966, the viability ([10]; 0.008 µM) was 0.105 and the viability ([10]; 0.04 µM) was 0.107. For the same compound, the viability ([10]; 0.2 µM) was 0.0985, the viability ([10]; 1 µM) was 0.0952 and the viability ([11]; 0.0016 µM) was 0.979. For the same compound, the viability ([11]; 0.008 µM) was 0.169, the viability ([11]; 0.04 µM) was 0.0691 and the viability ([11]; 0.2 µM) was 0.0617. It also gave a viability ([11]; 1 µM) of 0.065, a viability ([12]; 0.0016 µM) of 1 and a viability ([12]; 0.008 µM) of 0.153. The viability ([12]; 0.04 µM) was 0.028, the viability ([12]; 0.2 µM) was 0.0285 and the viability ([12]; 1 µM) was 0.0293. For the same compound, the viability ([13]; 0.0016 µM) was 0.929, the viability ([13]; 0.008 µM) was 0.0524 and the viability ([13]; 0.04 µM) was 0.0434. It also gave a viability ([13]; 0.2 µM) of 0.0447, a viability ([13]; 1 µM) of 0.0498 and a viability ([14]; 0.0016 µM) of 1.07. It also gave a viability ([14]; 0.008 µM) of 0.171, a viability ([14]; 0.04 µM) of 0.0777 and a viability ([14]; 0.2 µM) of 0.076. For the same compound, the viability ([14]; 1 µM) was 0.0799, the viability ([15]; 0.0016 µM) was 1.07 and the viability ([15]; 0.008 µM) was 0.047. For the same compound, the viability ([15]; 0.04 µM) was 0.0409, the viability ([15]; 0.2 µM) was 0.0324 and the viability ([15]; 1 µM) was 0.0324. The viability ([16]; 0.0016 µM) was 0.98, the viability ([16]; 0.008 µM) was 0.102 and the viability ([16]; 0.04 µM) was 0.0294. The viability ([16]; 0.2 µM) was 0.0307, the viability ([16]; 1 µM) was 0.0332 and the viability ([17]; 0.0016 µM) was 1.01. The viability ([17]; 0.008 µM) was 0.227, the viability ([17]; 0.04 µM) was 0.195 and the viability ([17]; 0.2 µM) was 0.216. The viability ([17]; 1 µM) was 0.269, the viability ([18]; 0.0016 µM) was 0.962 and the viability ([18]; 0.008 µM) was 0.641. For the same compound, the viability ([18]; 0.04 µM) was 0.759, the viability ([18]; 0.2 µM) was 0.756 and the viability ([18]; 1 µM) was 0.829. For the same compound, the viability ([19]; 0.0016 µM) was 0.881, the viability ([19]; 0.008 µM) was 0.534 and the viability ([19]; 0.04 µM) was 0.755. It also gave a viability ([19]; 0.2 µM) of 0.9 and a viability ([19]; 1 µM) of 1.08.
